A short description of this series: gradient 5% acetonitrile 3 min, to 50% in 2 min, to 85% in 15 min, held 3 min, 100 µL/min. As to conditions: column: Zorbax Extend-C18 2.1 x 50 mm; eluents: water / acetonitrile, 0.1% formic acid. The method in brief: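 The system's dead and dwell volumes were 40 μL and 900 μL, with a Zorbax Extend-C18 column (2.1 × 50 mm, 1.8 μm) run at 100 μL/min in water and acetonitrile containing 0.1% formic acid each. Pure standards were analyzed in mixtures of ~100 molecules by HPLC–quadrupole time-of-flight mass spectrometry in positive and negative ionization mode. Retention time was assigned from computationally picked, manually inspected adduct peaks.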
`O=C(c1cnccn1)N1CCC(N2C(=O)C(OCC3CC3)C23CCCCC3)CC1` (stereo not given) showed an RP-LC retention time of 752 s. Molecule `CCCC(NC(=O)c1ccc(N(C)C)cc1)C(=O)Nc1nc2ccccc2[nH]1` (stereo not given) returned an RP-LC retention time of 706 s. `CCc1nc(-c2csc(S(=O)(=O)N3CCCC(C(=O)NCc4ccccc4Cl)C3)c2)no1` (stereo not given) returned an RP-LC retention time of 1050 s.

Take `CC(C)(C)C(=O)N1CCCC(C(=O)Nc2sc3c(c2C(N)=O)CCCC3)C1` (stereo not given): the RP-LC retention time is 861 s.

The molecule `Cc1cc2[nH]c(C(=O)NCc3ccc(N4CCOCC4)cc3)c(CN3CCCC3)c2s1` had an RP-LC retention time of 660 s. As for `O=C(C1CN(S(=O)(=O)c2ccccc2)CC12CCCCC2)N1CCOCC1` (stereo not given), the RP-LC retention time came out at 840 s. `Nc1cc(C2CCN(C(=O)Nc3ccc(Br)cc3)CC2)no1`: the RP-LC retention time was found to be 732 s. Next, `COc1cc(CSc2nc(CC(=O)NCc3cccs3)cs2)cc(OC)c1`: 873 s; `Cc1cc(C(=O)N2CC(c3nc4ccccc4[nH]3)C2)no1`: 555 s. In turn, `Cc1cccc(C(=O)Nc2ccc(N3CCN(C4CCCC4)C3=O)nc2)c1` came in with an RP-LC retention time of 888 s. For `O=C(O)C1CN(CCCP(=O)(O)O)CCN1` (stereo not given) the value was 627 s; for `Cc1nc2ccc(C(=O)NC3CCN(C)CC3)cc2nc1C`, 566 s; for `CC1=C(c2ccccc2)S(=O)(=O)N=C1N1CCCN(C(=O)c2ccccc2)CC1`, 697 s. With `Cc1nnc2c(=O)n(CC(=O)NCc3ccccc3F)c3cccnc3n12`, the RP-LC retention time came to 649 s. `Cc1nnsc1C(=O)OCc1cc(-c2ccco2)on1`: the RP-LC retention time amounted to 850 s. The molecule `Cc1cc(C)n(-c2ccnc(N(C)Cc3ccccc3)n2)n1` registered an RP-LC retention time of 1070 s. Turning to `O=C(c1nnn2c1COC(c1ccccc1)C2)N1CCN(C(=O)c2cccc3[nH]ccc23)CC1` (stereo not given), the RP-LC retention time amounted to 792 s. In the case of `Cn1cc(-c2nc(C(=O)Nc3cc(F)ccc3F)cs2)c2cccnc21`, the RP-LC retention time was found to be 1150 s. For `CN1C(=O)c2cccn2CC1CNC(=O)c1ccnn1C` (stereo not given) the value was 591 s; for `O=S(=O)(c1cc(-c2nnc(C3CC3)o2)co1)N1CCC(N2CCCCC2)CC1`, 597 s; for `CCN1CCCn2nc(C3CCN(S(=O)(=O)c4ccc(C)c(C)c4)CC3)cc2C1=O`, 891 s. For the molecule `CCn1c(=O)c(C(=O)N2CCN(c3ccccn3)CC2)nc2ccccc21`, the RP-LC retention time was determined as 588 s. Take `COc1ccc(-c2noc(-c3cn(C)c4ccc(C)cc4c3=O)n2)cc1OC`: the RP-LC retention time came to 796 s. As to `COc1ccc(NC(=O)c2cnc3c(c2)c(=O)n(C)c(=O)n3-c2ccc(OC)cc2)cc1`, the RP-LC retention time amounted to 859 s. In the case of `CC1CCN(C(=O)CN2C(=O)C3CCCCN3c3ccc(S(=O)(=O)N(C)C)cc32)CC1` (stereo not given), the RP-LC retention time was 910 s. Turning to `CCc1cc(C(=O)Nc2cc(OC)ccc2OC)nc2cc(-c3ccco3)nn12`, the RP-LC retention time amounted to 1260 s. As to `Cc1ccc(CNC(=O)C2(C)CCN(S(=O)(=O)c3ccccc3Cl)CC2)cc1`, the RP-LC retention time was determined as 998 s. With `Fc1cccc(-c2nnc(-c3ccccc3Cl)o2)c1`, the RP-LC retention time is 1060 s. For the molecule `O=c1[nH]c2sc3c(c2c(=O)n1-c1ccccc1)CCCC3`, the RP-LC retention time turned out to be 772 s. For `Fc1ccccc1Cn1cccc1-c1nc(-c2ccc3c(c2)OCO3)no1`, the RP-LC retention time is 1230 s.

For `O=C(CCn1nnc2cc(-c3noc(-c4ccc(F)cc4)n3)ccc21)N1CCCC1`, the RP-LC retention time is 903 s. For the molecule `COC(=O)c1ccc2c(=O)n(-c3cc(OC)cc(OC)c3)c(N3CCCCCC3)nc2c1`, the RP-LC retention time was 1220 s. The molecule `COc1ccccc1C(=O)Nc1nnc(C2CC(=O)N(c3ccccc3)C2)o1` (stereo not given) returned an RP-LC retention time of 720 s.

As for `CCOc1ncccc1C(=O)Nc1cccc(-c2csc3nc(C)cc(=O)n23)c1`, the RP-LC retention time was found to be 774 s.

`CCn1cc(CCNC(=O)Nc2c(C)cccc2C)c2cccnc21` registered an RP-LC retention time of 705 s. On to `CCOC(=O)N1CCC(NC(=O)C2CCCN(Cc3nc(-c4cccnc4)no3)C2)CC1` (stereo not given), for which the RP-LC retention time is 559 s.

`CCOc1ccccc1NC(=O)N(C)CCc1noc(COc2ccccc2)n1` showed an RP-LC retention time of 977 s. `CC(C)CN1CCn2cc(S(=O)(=O)Nc3ccc(F)c(F)c3)cc2C1=O` registered an RP-LC retention time of 842 s. Next, `Cc1cc(C)cc(NC(=O)C2CCCN2S(=O)(=O)c2cc3c(cc2C)NC(=O)C(C)O3)c1` (stereo not given): 852 s. Regarding `Cc1ccc(S(=O)(=O)N2CCc3nc(-c4ccc(Cl)cc4)ncc3C2)cc1`, the RP-LC retention time was 1150 s. `Cn1ncc2c(N3CCCCC3)nc(C(=O)N3CCN(c4ccc(Cl)cc4)CC3)nc21`: the RP-LC retention time turned out to be 1020 s. As to `CCc1ccc(-c2noc(Cn3cnc4c(nnn4-c4ccccc4OC)c3=O)n2)cc1`, the RP-LC retention time turned out to be 1040 s.

The molecule `Cc1ccc(-c2cc(C(F)(F)F)on2)cc1S(=O)(=O)N1CCN(c2ccccn2)CC1` showed an RP-LC retention time of 868 s. For `O=C(Nc1cccc(-c2nnc3n2CCCC3)c1)C1CCCCC1`, the RP-LC retention time turned out to be 699 s.

Molecule `Cc1ccc(-c2nc(N)n(C(=O)c3ccc(C(C)(C)C)cc3)n2)cc1C` gave an RP-LC retention time of 1350 s. `COc1ccc(Cc2nnc3sc(-c4cnccn4)nn23)cc1`: the RP-LC retention time was 730 s.

In turn, `O=C1COc2ccc(C(=O)N3CCCCC3)cc2N1` registered an RP-LC retention time of 633 s. For `Cc1ccc(C)c(NC(=O)Cn2c(C)nc3c(sc4nc(-c5ccccc5)ccc43)c2=O)c1` the value was 1090 s.

For the molecule `CCCNC(=O)c1cnn(-c2cc(-c3nc(C(C)(C)C)no3)ccn2)c1C`, the RP-LC retention time came out at 961 s. For the molecule `O=C(NC1CC1)c1cccc2c1CCN2C(=O)C1CC1`, the RP-LC retention time is 649 s. The molecule `CCCC(=O)N1CCc2c([nH]c3ccc(OC)cc23)C1c1ccc(F)cc1` (stereo not given) returned an RP-LC retention time of 1040 s. Molecule `Cc1ccc(-c2ccc(S(=O)(=O)N3CCCC3)cc2)cc1` had an RP-LC retention time of 1070 s. `Cc1cccc(-c2ncccc2CNS(=O)(=O)c2cccc(C)c2)c1` returned an RP-LC retention time of 721 s. As to `O=C(Cn1c(=O)c(S(=O)(=O)c2ccccc2)cc2ccccc21)NCc1ccccc1Cl`, the RP-LC retention time worked out at 895 s. Molecule `Cc1nc(NS(=O)(=O)c2ccccc2)sc1C(=O)NCc1c(F)cccc1F` displayed an RP-LC retention time of 718 s. For `CCCn1c(C2CCN(C(=O)Nc3cccc(C)c3)C2)nc2cccnc21` (stereo not given) the value was 713 s. In turn, `CC(CCc1ccco1)NC(=O)C1CCc2nc(N3CCCCC3)ncc2C1` (stereo not given) gave an RP-LC retention time of 777 s. For `O=C(Cn1nc2c(cc1=O)CCCC2)Nc1ccc(N2CCCCS2(=O)=O)cc1` the value was 720 s. In turn, `CCCN1C(=O)C2CCC(=O)N2c2ccc(C(=O)NC(C)(C)CC)cc21` (stereo not given) registered an RP-LC retention time of 812 s. Next, `COc1cc(CN2CC(c3nc(-c4ccsc4)nn3C)C2)ccc1OC(C)C`: 684 s. As to `O=C(NCc1ccco1)N(c1ccccc1)c1ccccc1`, the RP-LC retention time was found to be 810 s. Turning to `CCN(CC)c1ccc(NC(=O)C2Cc3cc(S(=O)(=O)N4CCCC4)ccc3N2C(C)=O)c(C)c1` (stereo not given), the RP-LC retention time amounted to 676 s. In turn, `Cc1ccccc1Cn1nc2c(S(=O)(=O)N3CCOCC3)cccn2c1=O` gave an RP-LC retention time of 794 s. In the case of `CCCCCC(=O)C(=O)c1ccc(O)cc1O`, the RP-LC retention time amounted to 819 s. The molecule `CCOc1ccc(NC(=O)c2cc(C)n3nc(C)cc3n2)cc1` gave an RP-LC retention time of 976 s.

`O=C(Cn1nc(N2CCCC2)c2ccccc2c1=O)Nc1ccc(F)c(Cl)c1` gave an RP-LC retention time of 1000 s.

In turn, `Cc1nc([C@H]2CCN(Cc3ccc4[nH]ccc4c3)C[C@H]2N(C)C)n[nH]1` gave an RP-LC retention time of 520 s.

In turn, `COc1ccc(CNC(=O)C2(C)CCCN(S(=O)(=O)c3ccccc3Cl)C2)cc1` (stereo not given) showed an RP-LC retention time of 932 s. For `O=C(NCC1CCOCC1)c1ccc(Br)cc1` the value was 708 s. In turn, `CCC1CCCCN1Cc1nc(Cn2ccn3nc(-c4ccccc4)cc3c2=O)no1` (stereo not given) had an RP-LC retention time of 676 s.

In the case of `Cc1csc(-c2ccc(N3CCN(C(=O)c4cccs4)CC3)nc2)n1`, the RP-LC retention time stood at 781 s.

On to `O=C1CCc2cc(NC(=O)c3ccc([N+](=O)[O-])cc3Cl)ccc2N1`, for which the RP-LC retention time amounted to 807 s. Next, `CCC(C)NC(=O)C1CCCN(c2nccnc2Sc2ccc(C)cc2)C1` (stereo not given): 1320 s; `Cc1nn(C)c(=O)c2cc(S(=O)(=O)NCc3ccc(Cl)cc3)cn12`: 822 s; `Cc1cc(S(=O)(=O)NCC2(C)CCOCC2)ccc1F`: 840 s. `Cn1cc(S(=O)(=O)N2CCC(C(=O)NCc3cccs3)CC2)cc1C(=O)N1CCCC1` came in with an RP-LC retention time of 706 s. As for `Cc1nc2ccn(Cc3cccs3)c(=O)c2cc1C(=O)NCCC1=CCCCC1`, the RP-LC retention time turned out to be 931 s. `Cc1csc(-c2cc(S(=O)(=O)N3CCN(C(C)C)CC3)cn2CC(=O)N2CCCCC2)n1` showed an RP-LC retention time of 688 s. The molecule `O=C(O)c1cn(Cc2ccccn2)nc1S(=O)(=O)N1CCc2ccccc2C1` returned an RP-LC retention time of 690 s. For `O=C(NCCn1cnc2ccccc2c1=O)C1CC(=O)N(c2n[nH]c3ccccc23)C1` (stereo not given), the RP-LC retention time was 632 s.

The values are drawn from the METLIN SMRT retention time set (Domingo-Almenara et al. 2019).
